How the values were obtained:
[1] = target: T1, Human serum albumin (HSA) (Homo sapiens, UniProt P02768); assay: Binding constants by quenching of HSA tryptophan fluorescence; details: for K ± S.D. (binding constant): 6 μM HSA, pH 7.4, 25 °C, excitation 295 nm, 1:1 binding model
T1 construct: Fatty acid free HSA and warfarin sodium were purchased from Sigma-Aldrich; purchased Sigma-Aldrich (St. Louis, MO, USA)
Experimental: In all experiments, the final co-solvent concentration was held below 5%. This was done to prevent conformational changes of HSA due to changes in dielectric constant of the solvent.
Steady-state fluorescence was recorded using a thermostated Safas Xenius fluorometer (Safas Monaco, Monaco) with an integrated stirrer. All studies were performed at 25 ± 1 °C using 10 nm excitation and emission slit widths. […] Measurements were performed in duplicate.
A stock solution of a single ligand was gradually added via syringe to a 2 mL of a 6 μM HSA solution placed in a quartz cell. Measurements were conducted at the excitation wavelength of 295 nm and emission was recorded in the 310–400 nm range enabling calculations of corresponding binding constants. […] Binding constants were determined according to Dufour and Dangles. A Scatchard analysis was performed assuming n identical binding sites on HSA. Values for binding constant (K), molar fluorescence intensity of the complex (f), and the stoichiometric coefficient (n) were estimated by fitting the F vs. Lt curves against Equations (1) and (2) using a least-square regression program Scientist (MicroMath, Salt Lake City, UT, USA), where F is fluorescence intensity, [L] the free ligand concentration, [Lt] the total ligand concentration, and c the total albumin concentration. […] In all cases, the inner filter effect was taken into account by using absorption of free ligands at excitation and emission wavelengths (εex and εem, respectively) (Equation (3)), where Fcorr is the fluorescence corrected for the inner filter effect, F0 is the measured fluorescence, ε is the sum of εex and εem, l = 0.65 is the optical path and c is the flavonoid concentration. (1) Fcorr=fcnK[L]/1+K[L] (2) [Lt]=[L](1+ncK/1+K[L]) (3) F0=Fcorr×10^−εlc

[2] = target: Human serum albumin (HSA) IIA binding site (Homo sapiens, UniProt P02768); assay: Flavonoid fluorescence (excitation 450 nm) on HSA pre-saturated with warfarin (simultaneous binding / displacement)
Human serum albumin (HSA) IIA binding site, sequence (P02768 25-609): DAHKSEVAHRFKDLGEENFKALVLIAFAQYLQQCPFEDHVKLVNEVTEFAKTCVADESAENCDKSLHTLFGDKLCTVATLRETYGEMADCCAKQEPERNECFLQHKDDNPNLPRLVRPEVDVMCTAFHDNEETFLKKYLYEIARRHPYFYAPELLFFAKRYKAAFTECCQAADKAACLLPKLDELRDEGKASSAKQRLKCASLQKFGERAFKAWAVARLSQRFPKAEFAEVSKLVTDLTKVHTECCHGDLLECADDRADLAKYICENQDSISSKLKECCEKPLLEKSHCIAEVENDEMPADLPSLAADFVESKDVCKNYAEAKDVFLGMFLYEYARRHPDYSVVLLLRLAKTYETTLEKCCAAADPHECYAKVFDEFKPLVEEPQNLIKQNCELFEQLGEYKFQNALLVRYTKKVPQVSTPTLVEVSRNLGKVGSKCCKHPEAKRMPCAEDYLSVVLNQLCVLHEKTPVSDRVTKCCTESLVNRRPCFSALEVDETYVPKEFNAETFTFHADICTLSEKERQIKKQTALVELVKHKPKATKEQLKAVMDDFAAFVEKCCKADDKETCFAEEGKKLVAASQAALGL
Experimental: HSA was freshly dissolved in Dulbecco’s phosphate-buffered saline pH 7.4 (137 mM sodium chloride, 2.7 mM potassium chloride, 8.1 mM disodium hydrogen phosphate, 1.47 mM potassium dihydrogen phosphate) immediately before measurements. […]. In all experiments, the final co-solvent concentration was held below 5%. This was done to prevent conformational changes of HSA due to changes in dielectric constant of the solvent.
Steady-state fluorescence was recorded using a thermostated Safas Xenius fluorometer (Safas Monaco, Monaco) with an integrated stirrer. All studies were performed at 25 ± 1 °C using 10 nm excitation and emission slit widths. […] Higher concentrations of HSA and ligands were not used due to poor solubility of ligands and high influence of ligand absorption. Measurements were performed in duplicate.

HSA [3] = details: of its intensity without warfarin; cited from earlier work
[4] = Flavonoid fluorescence in buffer solution without HSA
HSA [5] = details: cited from earlier work
[6] = HSA 0-92% saturated with warfarin

T1 sequence (P02768 25-609): as above

Structure (SMILES): O=C(O)[C@H]1O[C@@H](Oc2c(-c3ccc(O)c(O)c3)oc3cc(O)cc(O)c3c2=O)[C@H](O)[C@@H](O)[C@@H]1O
- K ± S.D. (binding constant) [1]: 5.36 ± 0.13 × 10^4 M^−1

Structure (SMILES): O=c1cc(-c2ccc(O)c(O)c2)oc2cc(O[C@@H]3O[C@H](CO)[C@@H](O)[C@H](O)[C@H]3O)cc(O)c12 [Cynaroside]
- K ± S.D. (binding constant) [1]: 4.20 ± 0.25 × 10^4 M^−1

Structure (SMILES): O=c1c(O[C@@H]2O[C@H](CO)[C@H](O)[C@H](O)[C@H]2O)c(-c2ccc(O)c(O)c2)oc2cc(O)cc(O)c12 [Hyperoside]
- Kd [1]: 30.9 µM

Structure (SMILES): O=c1cc(-c2ccc(O)c(O)c2)oc2cc(O)c([C@@H]3O[C@H](CO)[C@@H](O)[C@H](O)[C@H]3O)c(O)c12 [Isoorientin]
- Kd [1]: 21.9 µM

Structure (SMILES): O=c1c(O[C@@H]2O[C@H](CO)[C@@H](O)[C@H](O)[C@H]2O)c(-c2ccc(O)c(O)c2)oc2cc(O)cc(O)c12 [Isoquercitrin]
- Kd [1]: 22.4 µM

Structure (SMILES): O=c1c(O)c(-c2ccc(O)c(O)c2)oc2cc(O)cc(O)c12 [Quercetin]
- Kd [1]: 6.94 µM
- Effect of warfarin on flavonoid Fmax (maximum fluorescence) [2, 6]: slightly decreased
- Effect of warfarin on flavonoid cmax (concentration needed to achieve Fmax) [2, 6]: slight increase
- Absolute fluorescence intensity ([2]; flavonoid 2,00 uM, 0% occupied HSA): 14,1006
- Absolute fluorescence intensity ([2]; flavonoid 2,00 uM, 22% occupied HSA): 14,3985
- Absolute fluorescence intensity ([2]; flavonoid 2,00 uM, 38% occupied HSA): 15,6001
- Absolute fluorescence intensity ([2]; flavonoid 2,00 uM, 63% occupied HSA): 14,9774
- Absolute fluorescence intensity ([2]; flavonoid 2,00 uM, 92% occupied HSA): 12,2760
- Absolute fluorescence intensity ([2]; flavonoid 4,00 uM, 0% occupied HSA): 18,1924
- Absolute fluorescence intensity ([2]; flavonoid 4,00 uM, 22% occupied HSA): 19,1798
- Absolute fluorescence intensity ([2]; flavonoid 4,00 uM, 38% occupied HSA): 20,1073
- Absolute fluorescence intensity ([2]; flavonoid 4,00 uM, 63% occupied HSA): 20,0687
- Absolute fluorescence intensity ([2]; flavonoid 4,00 uM, 92% occupied HSA): 16,0796
- Absolute fluorescence intensity ([2]; flavonoid 6,00 uM, 0% occupied HSA): 21,7864
- Absolute fluorescence intensity ([2]; flavonoid 6,00 uM, 22% occupied HSA): 22,8342
- Absolute fluorescence intensity ([2]; flavonoid 6,00 uM, 38% occupied HSA): 23,2658
- Absolute fluorescence intensity ([2]; flavonoid 6,00 uM, 63% occupied HSA): 23,0451
- Absolute fluorescence intensity ([2]; flavonoid 6,00 uM, 92% occupied HSA): 18,9492
- Absolute fluorescence intensity ([2]; flavonoid 7,99 uM, 0% occupied HSA): 25,2012
- Absolute fluorescence intensity ([2]; flavonoid 7,99 uM, 22% occupied HSA): 26,8970
- Absolute fluorescence intensity ([2]; flavonoid 7,99 uM, 38% occupied HSA): 26,0412
- Absolute fluorescence intensity ([2]; flavonoid 7,99 uM, 63% occupied HSA): 25,4057
- Absolute fluorescence intensity ([2]; flavonoid 7,99 uM, 92% occupied HSA): 21,2821
- Absolute fluorescence intensity ([2]; flavonoid 11,98 uM, 0% occupied HSA): 30,3340
- Absolute fluorescence intensity ([2]; flavonoid 11,98 uM, 22% occupied HSA): 31,0510
- Absolute fluorescence intensity ([2]; flavonoid 11,98 uM, 38% occupied HSA): 30,0611
- Absolute fluorescence intensity ([2]; flavonoid 11,98 uM, 63% occupied HSA): 29,3172
- Absolute fluorescence intensity ([2]; flavonoid 11,98 uM, 92% occupied HSA): 25,1156
- Absolute fluorescence intensity ([2]; flavonoid 15,97 uM, 0% occupied HSA): 33,9655
- Absolute fluorescence intensity ([2]; flavonoid 15,97 uM, 22% occupied HSA): 33,9646
- Absolute fluorescence intensity ([2]; flavonoid 15,97 uM, 38% occupied HSA): 33,4123
- Absolute fluorescence intensity ([2]; flavonoid 15,97 uM, 63% occupied HSA): 32,2916
- Absolute fluorescence intensity ([2]; flavonoid 15,97 uM, 92% occupied HSA): 28,2109
- Absolute fluorescence intensity ([2]; flavonoid 23,93 uM, 0% occupied HSA): 38,4893
- Absolute fluorescence intensity ([2]; flavonoid 23,93 uM, 22% occupied HSA): 37,6942
- Absolute fluorescence intensity ([2]; flavonoid 23,93 uM, 38% occupied HSA): 37,3757
- Absolute fluorescence intensity ([2]; flavonoid 23,93 uM, 63% occupied HSA): 36,2415
- Absolute fluorescence intensity ([2]; flavonoid 23,93 uM, 92% occupied HSA): 32,2392
- Absolute fluorescence intensity ([2]; flavonoid 31,87 uM, 0% occupied HSA): 40,5581
- Absolute fluorescence intensity ([2]; flavonoid 31,87 uM, 22% occupied HSA): 39,7022
- Absolute fluorescence intensity ([2]; flavonoid 31,87 uM, 38% occupied HSA): 39,4192
- Absolute fluorescence intensity ([2]; flavonoid 31,87 uM, 63% occupied HSA): 37,9878
- Absolute fluorescence intensity ([2]; flavonoid 31,87 uM, 92% occupied HSA): 34,7552
- Absolute fluorescence intensity ([2]; flavonoid 39,80 uM, 0% occupied HSA): 41,9281
- Absolute fluorescence intensity ([2]; flavonoid 39,80 uM, 22% occupied HSA): 41,0854
- Absolute fluorescence intensity ([2]; flavonoid 39,80 uM, 38% occupied HSA): 41,0246
- Absolute fluorescence intensity ([2]; flavonoid 39,80 uM, 63% occupied HSA): 39,4685
- Absolute fluorescence intensity ([2]; flavonoid 39,80 uM, 92% occupied HSA): 36,6753
- Absolute fluorescence intensity ([2]; flavonoid 47,71 uM, 0% occupied HSA): 41,6617
- Absolute fluorescence intensity ([2]; flavonoid 47,71 uM, 22% occupied HSA): 41,5821
- Absolute fluorescence intensity ([2]; flavonoid 47,71 uM, 38% occupied HSA): 41,3733
- Absolute fluorescence intensity ([2]; flavonoid 47,71 uM, 63% occupied HSA): 40,4449
- Absolute fluorescence intensity ([2]; flavonoid 47,71 uM, 92% occupied HSA): 37,3158
- Absolute fluorescence intensity ([2]; flavonoid 63,49 uM, 0% occupied HSA): 40,9892
- Absolute fluorescence intensity ([2]; flavonoid 63,49 uM, 22% occupied HSA): 40,4660
- Absolute fluorescence intensity ([2]; flavonoid 63,49 uM, 38% occupied HSA): 40,7086
- Absolute fluorescence intensity ([2]; flavonoid 63,49 uM, 63% occupied HSA): 39,7702
- Absolute fluorescence intensity ([2]; flavonoid 63,49 uM, 92% occupied HSA): 38,0617
- Absolute fluorescence intensity ([2]; flavonoid 79,21 uM, 0% occupied HSA): 39,3310
- Absolute fluorescence intensity ([2]; flavonoid 79,21 uM, 22% occupied HSA): 39,3997
- Absolute fluorescence intensity ([2]; flavonoid 79,21 uM, 38% occupied HSA): 39,3849
- Absolute fluorescence intensity ([2]; flavonoid 79,21 uM, 63% occupied HSA): 38,8686
- Absolute fluorescence intensity ([2]; flavonoid 79,21 uM, 92% occupied HSA): 37,3045
- Absolute fluorescence intensity ([2]; flavonoid 98,77 uM, 0% occupied HSA): 37,4633
- Absolute fluorescence intensity ([2]; flavonoid 98,77 uM, 22% occupied HSA): 37,3641
- Absolute fluorescence intensity ([2]; flavonoid 98,77 uM, 38% occupied HSA): 37,6865
- Absolute fluorescence intensity ([2]; flavonoid 98,77 uM, 63% occupied HSA): 37,3324
- Absolute fluorescence intensity ([2]; flavonoid 98,77 uM, 92% occupied HSA): 36,3823
- Relative STD-NMR signal intensity in presence of warfarin (HSA [3]): ~ 40%
- Absolute fluorescence intensity ([4]; flavonoid 2,00 uM): 0,8077
- Absolute fluorescence intensity ([4]; flavonoid 4,00 uM): 0,9540
- Absolute fluorescence intensity ([4]; flavonoid 7,99 uM): 1,1279
- Absolute fluorescence intensity ([4]; flavonoid 15,97 uM): 1,3080
- Absolute fluorescence intensity ([4]; flavonoid 31,87 uM): 1,5574
- Absolute fluorescence intensity ([4]; flavonoid 47,71 uM): 1,7477
- Absolute fluorescence intensity ([4]; flavonoid 63,49 uM): 2,0820
- Absolute fluorescence intensity ([4]; flavonoid 79,21 uM): 2,2472
- Absolute fluorescence intensity ([4]; flavonoid 98,77 uM): 2,4600

Structure (SMILES): C[C@@H]1O[C@@H](OC[C@H]2O[C@@H](Oc3c(-c4ccc(O)c(O)c4)oc4cc(O)cc(O)c4c3=O)[C@H](O)[C@@H](O)[C@@H]2O)[C@H](O)[C@H](O)[C@H]1O [Rutin]
- Kd [1]: 34.2 µM

Structure (SMILES): CC(=O)CC(c1ccccc1)c1c(O)c2ccccc2oc1=O (stereo not shown) [Warfarin]
- Fraction of warfarin in blood bound to HSA (HSA [5]): > 99%

From PMC6152318 (Molecules : A Journal of Synthetic Chemistry and Natural …, 2017)
